# In patent publication US20200087340A1, “LIF/LIFR ANTAGONIST IN ONCOLOGY AND NONMALIGNANT DISEASES” (Evestra, Inc., priority 2018, published 2020):
# Columns and labels:
# K-562 = assay: NCI-60 screening, Leukemia; format: cell-based, human
# HOP-62 = assay: NCI-60 screening, Non-Small Cell Lung Cancer; format: cell-based, human
# [1] = tested on: human endometrial stromal cells (HESC); assay: Decidualization assay, phalloidin staining of actin cytoskeleton; format: cell-based
# Experimental: Decidualization studies: The above compounds were investigated originally for the treatment of endometriosis. The compounds were tested in a decidualization assay using human endometrial stromal fibroblast (HESC) cells. In preparation for the possibility of embryonic attachment, the stromal cells in the endometrium undergo extensive waves of proliferation, remodeling, and terminal differentiation that transforms the endometrium into an endocrine gland, called decidua. This transformation is called decidualization and it is under the control by ovarian hormones.
# The level of apoptosis increases from the proliferative phase through menstrual cycle and peaks at menses. […] However if the cells are subjected to conditions that induce decidualization, stromal cells will begin to differentiate instead of undergoing apoptosis.
# Rationale of this assay is described above in mechanism of action studies section. Briefly, human stromal endometrial cells were plated in the presence and absence of progesterone and allow undergoing decidualization. The cells treated with test compounds of different concentrations and stained for actin cytocketal morphology using phalloidin staining and monitored under fluorescent microscope.
# HCT-15 = assay: NCI-60 screening, Colon Cancer; format: cell-based, human
# U251 = assay: NCI-60 screening, CNS Cancer; format: cell-based, human
# [2] = tested on: human umbilical vein endothelial cells (HUVEC); assay: Matrigel in vitro HUVECs tube formation assay (angiogenesis); format: cell-based; details: 1 μM concentration, all measured time points
# Experimental: Matrigel in vitro HUVECs tube formation assay: The tube formation assay was performed using 12-well plate coated with 100 μL Matrigel basement membrane matrix (BD Bioscience) per well and polymerized at 37° C. for 30 min. Human umbilical vascular endothelial cells (HUVECs) suspended in M199 medium containing 2% FBS were plated on the Matrigel at a density of 2×10^5 cells/well. […] After 8 h, the Matrigel-induced morphological changes were photographed and the extent of capillary tube formation was evaluated by measuring the total tube length per field.
# SW-620 = assay: NCI-60 screening, Colon Cancer; format: cell-based, human
# NCI-H522 = assay: NCI-60 screening, Non-Small Cell Lung Cancer; format: cell-based, human
# HL-60(TB) = assay: NCI-60 screening, Leukemia; format: cell-based, human
# COLO 205 = assay: NCI-60 screening, Colon Cancer; format: cell-based, human
# HT29 = assay: NCI-60 screening, Colon Cancer; format: cell-based, human
# SK-OV-3 = assay: NCI-60 screening, Ovarian Cancer; format: cell-based, human
# NCI-H23 = assay: NCI-60 screening, Non-Small Cell Lung Cancer; format: cell-based, human
# NCI/ADR-RES = assay: NCI-60 screening, Ovarian Cancer; format: cell-based, human
# T-47D = assay: NCI-60 screening, Breast Cancer; format: cell-based, human
# MCF7 = assay: NCI-60 screening, Breast Cancer; format: cell-based, human
# SMAD = assay: Phosphorylation of SMAD; format: cell-based; details: thorough blocking TGF-beta
# [3] = tested on: Patient derived tumor (melanoma); assay: Immunohistochemistry analysis of treated patient derived tumor; format: cell-based, human; details: 10 nM and 1 uM for 5 days
# Experimental: Patient derived tumor (melanoma) was treated with the compounds at 10 nM and 1 uM for 5 days in RPMI medium and harvested on day 6 using established protocol and immunohistochemistry was performed for different antibodies including p53, LIF, MDM2, pSTAT3, Ki67.
# CAKI-1 = assay: NCI-60 screening, Renal Cancer; format: cell-based, human
# MDA-MB-435 = assay: NCI-60 screening, Melanoma; format: cell-based, human
# RXF 393 = assay: NCI-60 screening, Renal Cancer; format: cell-based, human
# KM12 = assay: NCI-60 screening, Colon Cancer; format: cell-based, human
# SF-268 = assay: NCI-60 screening, CNS Cancer; format: cell-based, human
# SF-539 = assay: NCI-60 screening, CNS Cancer; format: cell-based, human
# IGROV1 = assay: NCI-60 screening, Ovarian Cancer; format: cell-based, human
# Experimental: Additional four, 10-fold or ½ log serial dilutions are made to provide a total of five drug concentrations plus control.
# For adherent cells, the assay is terminated by the addition of cold TCA. Cells are fixed in situ by the gentle addition of 50 μl of cold 50% (w/v) TCA (final concentration, 10% TCA) and incubated for 60 minutes at 4° C. The supernatant is discarded, and the plates are washed five times with tap water and air dried. Sulforhodamine B (SRB) solution (100 μl) at 0.4% (w/v) in 1% acetic acid is added to each well, and plates are incubated for 10 minutes at room temperature. After staining, unbound dye is removed by washing five times with 1% acetic acid and the plates are air dried. […] Using the seven absorbance measurements [time zero, (Tz), control growth, (C), and test growth in the presence of drug at the five concentration levels (Ti)], the percentage growth is calculated at each of the drug concentrations levels. […]
# Three dose response parameters are calculated for each experimental agent. […] The drug concentration resulting in total growth inhibition (TGI) is calculated from Ti=Tz. […] Values are calculated for each of these three parameters if the level of activity is reached; however, if the effect is not reached or is exceeded, the value for that parameter is expressed as greater or less than the maximum or minimum concentration tested.
# MCF-7 cells = assay: P53 / MDM2 levels in MCF-7 cells; format: cell-based, human
# SNB-19 = assay: NCI-60 screening, CNS Cancer; format: cell-based, human
# SK-MEL-2 = assay: NCI-60 screening, Melanoma; format: cell-based, human
# LOX IMVI = assay: NCI-60 screening, Melanoma; format: cell-based, human
# OVCAR-8 = assay: NCI-60 screening, Ovarian Cancer; format: cell-based, human
structure (smiles),measurement,setting,value
"C#CC(F)(F)[C@]1(O)CCC2C3CCC4=CC(=O)CCC4=C3C(c3ccc(C4CC4)cc3)C[C@@]21C (stereo partly drawn) [EC330, 17α-(1,1-difluoro-2-propyn-1-yl)-17β-hydroxy-11β-[4-p-(cyclopropyl)phenyl]estra-4,9-dien-3-one]",TGI (log10TGI),K-562,>−4.00
same,TGI (log10TGI),HOP-62,−6.79
same,actin cytoskeletal disruption (phalloidin staining),[1],cytoskeletal disruption
same,TGI (log10TGI),HCT-15,>−4.00
same,TGI (log10TGI),U251,−5.78
same,tube formation,[2],complete abrogation of tube formation
same,TGI (log10TGI),SW-620,−4.79
same,TGI (log10TGI),NCI-H522,<−8.00
same,TGI (log10TGI),HL-60(TB),<−8.00
same,TGI (log10TGI),COLO 205,−5.53
same,TGI (log10TGI),HT29,−6.72
same,TGI (log10TGI),SK-OV-3,−6.55
same,TGI (log10TGI),NCI-H23,<−8.00
same,TGI (log10TGI),NCI/ADR-RES,−5.41
same,TGI (log10TGI),T-47D,−5.00
same,TGI (log10TGI),MCF7,−4.96
same,phosphorylation of SMAD,SMAD,indirectly diminish the phosphorylation of SMAD
same,"apoptosis, p53, MDM2, LIF mediated STAT3 phosphorylation (immunohistochemistry)",[3],induce apoptosis and restore p53 by inhibiting MDM2 and LIF mediated STAT3 phosphorylation
same,TGI (log10TGI),CAKI-1,−6.41
same,TGI (log10TGI),MDA-MB-435,−5.03
same,TGI (log10TGI),RXF 393,−5.09
same,TGI (log10TGI),KM12,−5.91
same,TGI (log10TGI),SF-268,−6.43
same,TGI (log10TGI),SF-539,−7.77
same,TGI (log10TGI),IGROV1,<−8.00
same,P53 levels / MDM2,MCF-7 cells,restore P53 levels by inhibiting MDM2
same,TGI (log10TGI),SNB-19,>−4.00
same,TGI (log10TGI),SK-MEL-2,−5.19
same,TGI (log10TGI),LOX IMVI,<−8.00
same,TGI (log10TGI),OVCAR-8,−4.43
